Type in all cases: functional
The subject of one experiment is Rattus norvegicus. The experiment can be described thus: Reduction in body weight gain in 24 hrs food-deprived Sprague-Dawley rat assessed as body weight gain level at 100 umol/kg, po followed by standard chow pellets feeding and measured 6 hrs post dose (reference value: 20.3g).
For experiment [1], the target named is T1, G-protein coupled receptor 6 (Homo sapiens, UniProt P46095). Description: Inverse agonist activity at rat G-protein GSalpha fused GPR6 (unknown origin) expressed in HEK293 cell membranes assessed as cAMP accumulation pre-incubated for 30 mins by microbeta plate reader based assay.
Experiment [2] concerns the target T1, G-protein coupled receptor 6. Description: Inverse agonist activity at rat G-protein GSalpha fused GPR6 (unknown origin) expressed in HEK293 cell membranes assessed as effect on [35S]GTPgammaS binding pre-incubated for 5 to 10 mins followed by 60 mins incubation in presence of [35S]GTPgammaS by scintillation proximity assay. Background: GTPγS resists hydrolysis and so accumulates on activated G proteins.

Structures are written as SMILES.

T1 sequence (P46095 whole entry, the tested form may be a part): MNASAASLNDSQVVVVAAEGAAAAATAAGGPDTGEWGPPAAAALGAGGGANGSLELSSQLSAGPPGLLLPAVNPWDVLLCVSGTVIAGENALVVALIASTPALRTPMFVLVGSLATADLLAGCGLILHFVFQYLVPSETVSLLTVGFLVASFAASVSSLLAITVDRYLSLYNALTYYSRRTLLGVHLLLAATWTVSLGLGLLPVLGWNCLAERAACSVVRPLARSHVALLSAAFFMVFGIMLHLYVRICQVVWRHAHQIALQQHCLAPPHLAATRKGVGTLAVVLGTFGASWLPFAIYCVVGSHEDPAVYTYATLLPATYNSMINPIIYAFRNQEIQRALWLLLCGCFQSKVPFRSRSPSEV

In general, IC50 refers to the midpoint of a concentration-inhibition curve. For the molecule `O=C(/N=C1\SSC2=NCCN21)c1ccccc1`, in the experiment on Rattus norvegicus, the Activity is listed as 6.18 g. Besides, the concentration for half-maximal inhibition (IC50) in experiment [1] was found to be 170 nM; in experiment [2], 440 nM.
